We go through two compounds from ChEMBL document CHEMBL1154381, “Mining biologically-active molecules for inhibitors of fatty acid amide hydrolase (FAAH): identification of phenmedipham and amperozide as FAAH inhibitors” (Bioorg Med Chem Lett, 2009).

Each structure is given as a SMILES string. pIC50: −log10 of the molar value.

In data set [1] the target is T1, Fatty-acid amide hydrolase 1 (Rattus norvegicus) (UniProt P97612).
T1 sequence (whole entry): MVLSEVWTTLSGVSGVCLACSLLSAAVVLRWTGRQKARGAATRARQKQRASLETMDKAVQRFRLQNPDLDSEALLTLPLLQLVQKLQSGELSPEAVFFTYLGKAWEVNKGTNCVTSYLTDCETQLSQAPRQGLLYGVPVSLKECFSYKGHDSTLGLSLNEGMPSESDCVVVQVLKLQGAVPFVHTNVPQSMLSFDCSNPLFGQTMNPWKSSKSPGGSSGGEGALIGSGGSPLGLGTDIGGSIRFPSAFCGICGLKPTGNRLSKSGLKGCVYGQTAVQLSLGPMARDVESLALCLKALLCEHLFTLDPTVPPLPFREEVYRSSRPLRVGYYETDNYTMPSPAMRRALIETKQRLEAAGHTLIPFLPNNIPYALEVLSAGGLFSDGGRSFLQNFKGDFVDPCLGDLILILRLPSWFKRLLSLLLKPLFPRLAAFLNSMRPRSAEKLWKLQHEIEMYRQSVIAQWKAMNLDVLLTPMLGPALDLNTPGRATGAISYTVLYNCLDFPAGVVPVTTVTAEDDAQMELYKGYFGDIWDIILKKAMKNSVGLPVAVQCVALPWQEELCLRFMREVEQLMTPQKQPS
In words: Inhibition of rat FAAH at 10 uM.

Data set [2] concerns the target T2, Fatty-acid amide hydrolase 1 (Homo sapiens, UniProt O00519).
T2 sequence (O00519 whole entry): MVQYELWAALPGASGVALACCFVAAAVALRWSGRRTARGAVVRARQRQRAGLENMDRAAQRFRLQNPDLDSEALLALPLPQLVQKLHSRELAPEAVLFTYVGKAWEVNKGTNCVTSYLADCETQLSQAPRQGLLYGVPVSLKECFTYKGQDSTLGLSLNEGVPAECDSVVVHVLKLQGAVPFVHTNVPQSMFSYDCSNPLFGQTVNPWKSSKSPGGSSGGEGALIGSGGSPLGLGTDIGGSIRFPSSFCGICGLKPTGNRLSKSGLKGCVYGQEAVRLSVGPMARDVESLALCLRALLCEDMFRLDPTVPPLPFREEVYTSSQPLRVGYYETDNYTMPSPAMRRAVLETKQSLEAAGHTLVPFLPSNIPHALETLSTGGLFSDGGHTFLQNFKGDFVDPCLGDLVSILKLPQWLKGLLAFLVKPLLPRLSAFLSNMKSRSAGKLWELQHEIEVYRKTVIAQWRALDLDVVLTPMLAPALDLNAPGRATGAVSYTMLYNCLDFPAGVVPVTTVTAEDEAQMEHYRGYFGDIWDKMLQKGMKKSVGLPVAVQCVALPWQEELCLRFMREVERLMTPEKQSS
In words: Inhibition of human FAAH-mediated hydrolysis of [3H]AEA.

Data set [3] has as its target T2, Fatty-acid amide hydrolase 1. Description: Inhibition of human FAAH.
Data set [4] is described as follows: Toxicity in rat. As to conditions: in vivo. The format is organism-based.
Data set [5] concerns the target T3, Fatty-acid amide hydrolase 1 (Rattus norvegicus, UniProt P97612).
T3 sequence (P97612 whole entry): T1 sequence (whole entry)
In words: Inhibition of rat FAAH.

Regarding `CCNC(=O)N1CCN(CCCC(c2ccc(F)cc2)c2ccc(F)cc2)CC1` [AMPEROZIDE], the inhibition in data set [1] came out at 50%. The pIC50 was 6.34 in data set [2] and 5.87 in data set [3].

The compound `COC(=O)Nc1cccc(OC(=O)Nc2cccc(C)c2)c1` displayed an LD50 in data set [4] above 8000 mg/kg. For the same compound, the pIC50 in data set [2] was 6.82; in data set [5] it was 7.11; in data set [3], 6.42.
